Results taken from PMC8587750, “Structural Optimization and Biological Activity of Pyrazole Derivatives: Virtual Computational Analysis, Recovery Assay and 3D Culture Model as Potential Predictive Tools of Effectiveness against Trypanosoma cruzi” (Molecules, 2021).
Like-named read-outs stand apart in the source and are kept apart here.

How the values were obtained:
[1] = test system: intracellular amastigotes of T. cruzi; test: Activity against intracellular amastigotes in infected Vero cells (Dm28c-Luc, 72 h); type: cell-based, Trypanosoma cruzi; details: for IC50 / IC90: Trypanosoma cruzi; for IC50: Vero; for Intracellular Amastigotes SI: CC50 of Vero cells/IC50 of intracellular amastigote; for IC90: read-out: Trypanocidal Activity Intracellular Amastigotes IC90
Excerpt: (§1) T. cruzi Dm28c clone genetically modified to express luciferase, kindly provided by Dr. Cristina Henriques from Oswaldo Cruz Institute–Fiocruz, was used in the drug assays. Trypomastigotes were harvested from T. cruzi-infected Vero cultures supernatants at 4th days post-infection (dpi) and used in the phenotypic screening assay. For intracellular amastigotes assays, Vero cells (2D and 3D cultures) were infected at a ratio of 10:1 parasites/host cells.
The effect of the pyrazole derivatives against intracellular amastigotes was also evaluated after 72 h treatment (37 °C) with compound concentrations ranging from 0.04–100 µM [13]. Parasite viability, measured by luminescent signal, was determined after luciferin (300 µg/mL) addition. IC50 and IC90 values were calculated by linear regression. Selectivity index (SI) was calculated as the ratio of the CC50 to IC50 values. The non-toxic concentration of DMSO (less than 1% v/v) was used in all assays. A minimum of three independent assays was carried out in duplicate.

[2] = Cytotoxicity in vitro assay (ATP, CellTiter Glo, 72 h); type: cell-based; details: African green monkey, Vero cells
Experimental: Vero cells, obtained from the Rio de Janeiro Cell Bank (BCRJ code 0245), were cultured in RPMI-1640 supplemented with 10% fetal bovine serum (FBS) and 1 mM L-glutamine, as previously described. Vero cells were used for drug screening assays and to obtain trypomastigote forms of T. cruzi.
Vero cells were used as a cellular model to analyze the toxic effect of pyrazole derivatives, series 1(a–l), 2(a–l), 3(a–n), 4(a–c), and 5(a–c), and Benznidazole (Bz) on mammalian cells. Briefly, the cells, plated on 96-well white opaque microplate (1.5 × 10^4 cells/well), were treated for 72 h at 37 °C with a wide range concentration (500–1.95 µM) of the pyrazole derivatives. The cell viability was determined by measuring ATP levels using the CellTiter Glo Kit (Promega Corporation, Madison, WI, EUA) followed by reading the luminescent signal on the Glomax-Multi Detection plate reader (Promega Corporation, Madison, WI, EUA)). All treatments and controls were performed at a low concentration of DMSO (≤1%). The 50% cytotoxic concentration values (CC50; the concentration of the compound that reduces 50% of the cell viability) were estimated by linear regression analysis. Three independent assays were performed in duplicate.

[3] = test system: trypomastigote forms of T. cruzi; test: Phenotypic screening against T. cruzi trypomastigotes (Dm28c-Luc, luciferase viability, 24 h); type: cell-based, Trypanosoma cruzi; details: for IC50 / IC90: Trypanosoma cruzi, Dm28c-Luc, 24 h; for IC50: read-out: Trypanocidal Activity Trypomastigotes IC50; for IC90: read-out: Trypanocidal Activity Trypomastigotes IC90
Excerpt: as §1
The phenotypic compound screening was performed using transgenic T. cruzi parasites expressing the firefly luciferase (Dm28c-Luc). Trypomastigotes (1 × 10^6 parasites/well) were treated for 24 h at 37 °C with the pyrazole derivatives and Bz (0.04–100 μM), followed by incubation with luciferin substrate (300 µg/mL) to determine parasite viability through luciferase activity. The concentration that reduces the number of viable parasites by 50% (IC50) or 90% (IC90) was calculated by linear regression. The luminescent signal was read on a Glomax-Multi Detection plate reader (Promega Corporation, Madison, WI, EUA)). At least three independent assays were performed in duplicate.

[4] = negative log of the IC50 value in molar, read-out: Intracellular Amastigotes pIC50 (converted)
[5] = 72 h, Vero cells infected with Dm28c-Luc, 72 h, read-out: Trypanocidal Activity Intracellular Amastigotes IC50
[6] = Vero cells infected with Dm28c-Luc, 72 h

| Structure (SMILES) | IC50 [1, 4] | melting point | Intracellular Amastigotes SI [1] | IC50 [1, 5] | IC90 [1, 6] | CC50 at 72 h [2] | IC50 [3] | Trypomastigotes SI ([3]; CC50 of Vero cells/IC50 of trypomastigote) | IC90 [3] |
| --- | --- | --- | --- | --- | --- | --- | --- | --- | --- |
| NC(=O)c1cnn(-c2cccc(Cl)c2Cl)c1N [Compound 2l, 5-amino-1-(2,3-dichlorophenyl)-1H-pyrazole-4-carboxamide] | > 70.8 µM | 160 to 164 °C | – | – | – | – | – | – | – |
| COc1ccc(-n2ncc(C(N)=O)c2N)cc1 [Compound 2k, 5-amino-1-(4-methoxyphenyl)-1H-pyrazole-4-carboxamide] | > 70.8 µM | 214 to 218 °C | – | – | – | – | – | – | – |
| NC(=O)c1cnn(-c2ccccc2)c1 [Compound 1a, 1-phenyl-1H-pyrazole-4-carboxamide] | > 50.1 µM | 224 to 225 °C | – | – | – | – | – | – | – |
| NC(=O)c1cnn(-c2cccc(Cl)c2)c1N [Compound 2b, 5-amino-1-(3-chlorophenyl)-1H-pyrazole-4-carboxamide] | > 70.8 µM | 168 to 170 °C | – | – | – | – | – | – | – |
| NC(=O)c1cnn(-c2cccc(Br)c2)c1N [Compound 2j, 5-amino-1-(3-bromophenyl)-1H-pyrazole-4-carboxamide] | > 70.8 µM | 138 to 142 °C | – | – | – | – | – | – | – |
| Cc1cc(Cl)ccc1-n1cc(C2=NCCN2)cn1 [Compound 3n, 1-(4-chloro-2-methylphenyl)-4-(4,5-dihydro-1H-imidazol-2-yl)-1H-pyrazole] | 24.5 µM | 174 to 176 °C | 13.86 | 24.7 ± 3.42 µM | 85.7 ± 5.03 µM | 342 ± 30 µM | > 100 µM | – | – |
| Clc1cc(Cl)cc(-n2cc(C3=NCCN3)cn2)c1 [Compound 3d, 1-(3,5-dichlorophenyl)-4-(4,5-dihydro-1H-imidazol-2-yl)-1H-pyrazole] | 55 µM | 83 to 84 °C | 6.99 | 54.9 ± 7.12 µM | > 100 µM | 384 ± 23 µM | 66.3 ± 5.53 µM | 5.78 | 93.5 ± 1.56 µM |
| NC(=O)c1cnn(-c2ccc(F)cc2)c1N [Compound 2g, 5-amino-1-(4-fluorophenyl)-1H-pyrazole-4-carboxamide] | > 70.8 µM | 232 to 234 °C | – | – | – | – | – | – | – |
| NC(=O)c1cnn(-c2cccc(Cl)c2Cl)c1 [Compound 1l, 1-(2,3-dichlorophenyl)-1H-pyrazole-4-carboxamide] | > 50.1 µM | 220 to 224 °C | – | – | – | – | – | – | – |
| NC(=O)c1cnn(-c2cccc(F)c2)c1N [Compound 2h, 5-amino-1-(3-fluorophenyl)-1H-pyrazole-4-carboxamide] | > 70.8 µM | 178 to 182 °C | – | – | – | – | – | – | – |
| Clc1cccc(Cl)c1-n1cc(C2=NCCN2)cn1 [Compound 3f, 1-(2,6-dichlorophenyl)-4-(4,5-dihydro-1H-imidazol-2-yl)-1H-pyrazole] | 81.3 µM | 221 to 223 °C | >6 | 82 ± 2.52 µM | > 100 µM | > 500 µM | > 100 µM | – | – |
| Cc1nn(-c2ccc(Cl)c(Cl)c2)c(N)c1C1=NCCN1 [Compound 4c, 5-amino-1-(3,4-dichlorophenyl)-3-methyl-4-(4,5-dihydro-1H-imidazol-2-yl)-1H-pyrazole] | 93.3 µM | 221 to 224 °C | 3.78 | 93.8 ± 16.4 µM | > 100 µM | 355 ± 17.7 µM | > 100 µM | – | > 100 µM |
| CC1CN=C(c2cnn(-c3cccc(Cl)c3)c2N)N1 (centres unmarked) [Compound 5a, 5-amino-1-(3-chlorophenyl)-4-(4-(5)-methyl-4,5-dihydro-1H-imidazol-2-yl)-1H-pyrazole] | > 100 µM | 169 to 172 °C | – | > 100 µM | > 100 µM | > 500 µM | > 100 µM | – | > 100 µM |
| CC1CN=C(c2cnn(-c3cc(Cl)cc(Cl)c3)c2N)N1 (centres unmarked) [Compound 5b, 5-amino-1-(3,5-dichlorophenyl)-4-(4-(5)-methyl-4,5-dihydro-1H-imidazol-2-yl)-1H-pyrazole] | 33.1 µM | 189 to 192 °C | >15.17 | 33 ± 8.84 µM | > 100 µM | > 500 µM | > 100 µM | – | > 100 µM |
| NC(=O)c1cnn(-c2ccc(Cl)cc2)c1N [Compound 2f, 5-amino-1-(4-chlorophenyl)-1H-pyrazole-4-carboxamide] | > 70.8 µM | 196 to 200 °C | – | – | – | – | – | – | – |
| NC(=O)c1cnn(-c2cc(Cl)cc(Cl)c2)c1 [Compound 1d, 1-(3,5-dichlorophenyl)-1H-pyrazole-4-carboxamide] | > 50.1 µM | 240 to 242 °C | – | – | – | – | – | – | – |
| COc1ccc(-n2cc(C(N)=O)cn2)cc1 [Compound 1k, 1-(4-methoxyphenyl)-1H-pyrazole-4-carboxamide] | > 50.1 µM | 220 to 222 °C | – | – | – | – | – | – | – |
| NC(=O)c1cnn(-c2ccc(Br)cc2)c1 [Compound 1i, 1-(4-bromophenyl)-1H-pyrazole-4-carboxamide] | > 50.1 µM | 242 to 244 °C | – | – | – | – | – | – | – |
| NC(=O)c1cnn(-c2ccc(Cl)c(Cl)c2)c1N [Compound 2e, 5-amino-1-(3,4-dichlorophenyl)-1H-pyrazole-4-carboxamide] | > 70.8 µM | 204 to 212 °C | – | – | – | – | – | – | – |
| NC(=O)c1cnn(-c2ccc(Br)cc2)c1N [Compound 2i, 5-amino-1-(4-bromophenyl)-1H-pyrazole-4-carboxamide] | > 70.8 µM | 138 to 142 °C | – | – | – | – | – | – | – |
| NC(=O)c1cnn(-c2ccc(Cl)cc2Cl)c1N [Compound 2c, 5-amino-1-(2,4-dichlorophenyl)-1H-pyrazole-4-carboxamide] | > 70.8 µM | 212 to 214 °C | – | – | – | – | – | – | – |
| NC(=O)c1cnn(-c2ccc(Cl)cc2Cl)c1 [Compound 1c, 1-(2,4-dichlorophenyl)-1H-pyrazole-4-carboxamide] | > 50.1 µM | 184 to 186 °C | – | – | – | – | – | – | – |
| NC(=O)c1cnn(-c2ccc(Cl)cc2)c1 [Compound 1f, 1-(4-chlorophenyl)-1H-pyrazole-4-carboxamide] | > 50.1 µM | 234 to 236 °C | – | – | – | – | – | – | – |
| NC(=O)c1cnn(-c2cccc(F)c2)c1 [Compound 1h, 1-(3-fluorophenyl)-1H-pyrazole-4-carboxamide] | > 50.1 µM | 206 to 208 °C | – | – | – | – | – | – | – |
| NC(=O)c1cnn(-c2cc(Cl)cc(Cl)c2)c1N [Compound 2d, 5-amino-1-(3,5-dichlorophenyl)-1H-pyrazole-4-carboxamide] | > 70.8 µM | 184 to 186 °C | – | – | – | – | – | – | – |
| NC(=O)c1cnn(-c2ccc(F)cc2)c1 [Compound 1g, 1-(4-fluorophenyl)-1H-pyrazole-4-carboxamide] | > 50.1 µM | 244 to 246 °C | – | – | – | – | – | – | – |
| NC(=O)c1cnn(-c2cccc(Cl)c2)c1 [Compound 1b, 1-(3-chlorophenyl)-1H-pyrazole-4-carboxamide] | > 50.1 µM | 202 to 204 °C | – | – | – | – | – | – | – |
| NC(=O)c1cnn(-c2cccc(Br)c2)c1 [Compound 1j, 1-(3-bromophenyl)-1H-pyrazole-4-carboxamide] | > 50.1 µM | 212 to 214 °C | – | – | – | – | – | – | – |
| NC(=O)c1cnn(-c2ccc(Cl)c(Cl)c2)c1 [Compound 1e, 1-(3,4-dichlorophenyl)-1H-pyrazole-4-carboxamide] | > 50.1 µM | 190 to 192 °C | – | – | – | – | – | – | – |
